≈ marks a conversion by molar mass, not a printed value.
Experiments:
Format in all cases: cell-based
A. anitratus ATCC 19606 = assay: Broth microdilution MIC, ATCC strains; settings: Acinetobacter calcoaceticus, ATCC19606; A. anitratus ATCC 19606; read-out: MIC (growth inhibition, microdilution method)
Source text: (§1) All clinical isolates tested were from The North American Urinary Tract Infection Collaborative Alliance (NAUTICA) which is a UTI surveillance study involving 40 medical centres (30 from the US and 10 from Canada). Each centre submitted up to 50 consecutive outpatient midstream urine isolates. All isolates were deemed significant urinary tract pathogens by individual laboratory criteria and identified to the species level by each laboratory's existing protocol. Isolates were transported to the coordinating laboratory (Health Sciences Centre, Winnipeg, Canada) on charcoal swabs. Only one isolate per patient was accepted. Upon receipt, isolates were cultured by the coordinating laboratory, stocked in skim milk, and stored at −80° C. awaiting reference antibiotic susceptibility testing. Elementary demographic information was also compiled for each isolate. Isolates were selected randomly from the above pool to represent 18 different species of Enterobacteriaceae and non-Enterobacteriaceae. An average of 5 strains of each species were tested for a total of 93 organisms. In addition, 23 reference (ATCC) [both gram negative and gram positive] strains were tested.
(§2) Susceptibilities to the compounds were determined using the National Committee for Clinical Laboratory Standards (NCCLS) M7-A6 broth microdilution method. […] DMSO controls were incorporated into the panel to mimic the quantity of DMSO used in dissolving some of the compounds at the higher concentrations. Each final panel well volume was 100 μl with a bacterial inoculum of 5×10^5 colony forming units (CFU)/ml. Panels were read following 16 to 20 hours of incubation at 35° C. in ambient air. The minimum inhibitory concentration (MIC) was defined as the lowest concentration of antimicrobial inhibiting visible growth. Quality control (QC) was performed using four ATCC QC organisms that were run with every batch set up to insure reproducibility.

B. cepacia ATCC 25416 = assay: Broth microdilution MIC, ATCC strains; settings: Burkholderia cepacia, ATCC25416; B. cepacia ATCC 25416; read-out: MIC (growth inhibition, microdilution method)
Source text: as §1, §2

E. aerogenes ATCC 13048 = assay: Broth microdilution MIC, ATCC strains; settings: Klebsiella aerogenes, ATCC13048; E. aerogenes ATCC 13048; read-out: MIC (growth inhibition, microdilution method)
Source text: as §1, §2

E. cloacae ATCC 23355 = assay: Broth microdilution MIC, ATCC strains; settings: Enterobacter cloacae, ATCC23355; E. cloacae ATCC 23355; read-out: MIC (growth inhibition, microdilution method)
Source text: as §1, §2

E. coli ATCC 25922 = assay: Broth microdilution MIC, ATCC strains; settings: for MIC (growth inhibition, microdilution method): E. coli ATCC 25922; for MIC: Escherichia coli, ATCC25922, E. coli ATCC 25922, read-out: MIC (growth inhibition, microdilution method)
Source text: as §1, §2

K. oxytoca ATCC 49131 = assay: Broth microdilution MIC, ATCC strains; settings: Klebsiella oxytoca, ATCC49131; K. oxytoca ATCC 49131; read-out: MIC (growth inhibition, microdilution method)
Source text: as §1, §2

K. pneumoniae ATCC 13883 = assay: Broth microdilution MIC, ATCC strains; settings: Klebsiella pneumoniae, ATCC13883; K. pneumoniae ATCC 13883; read-out: MIC (growth inhibition, microdilution method)
Source text: as §1, §2

P. mirabilis ATCC 29245 = assay: Broth microdilution MIC, ATCC strains; settings: Proteus mirabilis, ATCC29245; P. mirabilis ATCC 29245; read-out: MIC (growth inhibition, microdilution method)
Source text: as §1, §2

[1] = tested on: Ps. aeruginosa ATCC 27853; assay: Broth microdilution MIC, ATCC strains; settings: Ps. aeruginosa ATCC 27853; for MIC: Pseudomonas aeruginosa, ATCC27853, read-out: MIC (growth inhibition, microdilution method)
Source text: as §1, §2

S. aureus ATCC 29213 = assay: Broth microdilution MIC, ATCC strains; settings: for MIC: Staphylococcus aureus, ATCC29213, S. aureus ATCC 29213, read-out: MIC (growth inhibition, microdilution method)
Source text: as §1, §2

[2] = tested on: S. liquefaciens ATCC 27592; assay: Broth microdilution MIC, ATCC strains; settings: S. liquefaciens ATCC 27592; read-out: MIC (growth inhibition, microdilution method)
Source text: as §1, §2

[3] = tested on: S. saprophyticus ATCC 15305; assay: Broth microdilution MIC, ATCC strains; settings: Staphylococcus saprophyticus, ATCC15305; S. saprophyticus ATCC 15305; read-out: MIC (growth inhibition, microdilution method)
Source text: as §1, §2

P. rettgeri CAP = assay: Broth microdilution MIC, reference strains; settings: Providencia rettgeri; P. rettgeri (CAP in Table 1); read-out: MIC (growth inhibition, microdilution method)
Source text: as §1, §2

[4] = tested on: A. baumanii clinical isolates; assay: Broth microdilution MIC, clinical isolate strains (NAUTICA); settings: clinical isolates, one table line per isolate; unit assumed
Source text: as §1, §2

[5] = tested on: B. cepacia clinical isolates; assay: as above; settings: clinical isolates, one table line per isolate; unit assumed
Source text: as §1, §2

[6] = tested on: C. amalonaticus clinical isolates; assay: as above; settings: clinical isolates, one table line per isolate; unit assumed
Source text: as §1, §2

[7] = tested on: C. freundii clinical isolates; assay: as above; settings: clinical isolates, one table line per isolate; in µg/mL (unit assumed)
Source text: as §1, §2

[8] = tested on: C. koseril clinical isolates; assay: as above; settings: clinical isolates, one table line per isolate; unit assumed
Source text: as §1, §2

[9] = tested on: E. aerogenes clinical isolates; assay: as above; settings: clinical isolates, one table line per isolate; unit assumed
Source text: as §1, §2

[10] = tested on: E. cloacae clinical isolates; assay: as above; settings: clinical isolates, one table line per isolate; unit assumed
Source text: as §1, §2

[11] = tested on: K. oxytoca clinical isolates; assay: as above; settings: clinical isolates, one table line per isolate; unit assumed
Source text: as §1, §2

[12] = tested on: K. pneumoniae clinical isolates; assay: as above; settings: clinical isolates, one table line per isolate; unit assumed
Source text: as §1, §2

[13] = tested on: M. morganii clinical isolates; assay: as above; settings: clinical isolates, one table line per isolate; unit assumed
Source text: as §1, §2

[14] = tested on: P. mirabilis clinical isolates; assay: as above; settings: clinical isolates, one table line per isolate; unit assumed
Source text: as §1, §2

[15] = tested on: P. retgerri clinical isolates; assay: as above; settings: clinical isolates, one table line per isolate; unit assumed
Source text: as §1, §2

[16] = tested on: P. stuartii clinical isolates; assay: as above; settings: clinical isolates, one table line per isolate; unit assumed
Source text: as §1, §2

[17] = tested on: S. liquifaciens clinical isolates; assay: as above; settings: clinical isolates, one table line per isolate; unit assumed
Source text: as §1, §2

[18] = tested on: S. maltophilia clinical isolates; assay: as above; settings: clinical isolates, one table line per isolate; unit assumed
Source text: as §1, §2

[19] = tested on: S. marcescens clinical isolates; assay: as above; settings: clinical isolates, one table line per isolate; unit assumed
Source text: as §1, §2

[20] = tested on: E. coli clinical isolates; assay: as above; settings: clinical isolates, one table line per isolate; unit assumed
Source text: as §1, §2

[21] = tested on: P. vulgaris clinical isolates; assay: as above; settings: clinical isolates, one table line per isolate; unit assumed
Source text: as §1, §2

SMILES | MIC (A. anitratus ATCC 19606) | MIC (B. cepacia ATCC 25416) | MIC (E. aerogenes ATCC 13048) | MIC (E. cloacae ATCC 23355) | MIC (growth inhibition, microdilution method) (E. coli ATCC 25922) | MIC (E. coli ATCC 25922) | MIC (K. oxytoca ATCC 49131) | MIC (K. pneumoniae ATCC 13883) | MIC (P. mirabilis ATCC 29245) | MIC [1] | MIC (S. aureus ATCC 29213) | MIC [2] | MIC [3] | MIC (P. rettgeri CAP) | MIC, C. AMALONATICUS [6] | MIC, C. FREUNDII [7] | MIC, C. KOSERI [8] | MIC, E. AEROGENES [9] | MIC, E. CLOACAE [10] | MIC, K. OXYTOCA [11] | also measured
O=C(O)c1cc(-c2nn[nH]n2)cs1 [DNM-116, 4-(2H-Tetrazol-5-yl)-thiophene-2-carboxylic acid] | 16 µg/mL (≈ 81.6 µM) | 16 µg/mL (≈ 81.6 µM) | 16 µg/mL (≈ 81.6 µM) | 16 µg/mL (≈ 81.6 µM) | 8 µg/mL (≈ 40.8 µM) | 16 µg/mL (≈ 81.6 µM) | 16 µg/mL (≈ 81.6 µM) | 16 µg/mL (≈ 81.6 µM) | 32 µg/mL (≈ 163 µM) | 16 µg/mL (≈ 81.6 µM) | 32 µg/mL (≈ 163 µM) | 16 µg/mL (≈ 81.6 µM) | 16 µg/mL (≈ 81.6 µM) | 32 µg/mL (≈ 163 µM) | 16 µg/mL (≈ 81.6 µM) | 16 | 16 µg/mL (≈ 81.6 µM) | 16 µg/mL (≈ 81.6 µM) | 16 µg/mL (≈ 81.6 µM) | 16 µg/mL (≈ 81.6 µM) | MIC (growth inhibition, microdilution method) (S. aureus ATCC 29213; S. aureus ATCC 29213): >32 µg/mL; MIC, A. BAUMANII [4]: 16 µg/mL (≈ 81.6 µM); MIC, B. CEPACIA [5]: 16 µg/mL (≈ 81.6 µM); MIC, K. PNEUMONIAE [12]: 16 µg/mL (≈ 81.6 µM); MIC, M. MORGANII [13]: 16 µg/mL (≈ 81.6 µM); MIC, P. MIRABILIS [14]: 16 µg/mL (≈ 81.6 µM); MIC, P. RETTGERI [15]: 16 µg/mL (≈ 81.6 µM); MIC, P. STUARTII [16]: 16 µg/mL (≈ 81.6 µM); MIC, S. LIQUEFACIENS [17]: 16 µg/mL (≈ 81.6 µM); MIC, S. MALTOPHILIA [18]: 16 µg/mL (≈ 81.6 µM); MIC, S. MARCESCENS [19]: 16 µg/mL (≈ 81.6 µM)
Cn1nnc(-c2cc(C(=O)O)sc2-c2ccc(F)cc2)n1 [DNM-123, 5-(4-fluorophenyl)-4-(2-methyl-2H-tetrazol-5-yl)thiophene-2-carboxylic acid] | ≤ 0.5 µg/mL | ≤ 0.5 µg/mL | 8 µg/mL (≈ 26.3 µM) | 8 µg/mL (≈ 26.3 µM) | 8 µg/mL (≈ 26.3 µM) | 8 µg/mL (≈ 26.3 µM) | > 8 µg/mL | 8 µg/mL (≈ 26.3 µM) | > 8 µg/mL | 8 µg/mL (≈ 26.3 µM) | > 8 µg/mL | 8 µg/mL (≈ 26.3 µM) | > 8 µg/mL | > 8 µg/mL |  | 8 |  |  |  |  | MIC (growth inhibition, microdilution method) [1]: 8 µg/mL (≈ 26.3 µM)
CCOC(=O)c1cc(-c2nnn[nH]2)c(-c2ccc(F)cc2)s1 [DNM-124, 5-(4-Fluoro-phenyl)-4-(1H-tetrazol-5-yl)-thiophene-2-carboxylic acid ethyl ester] | 64 µg/mL (≈ 201 µM) | 64 µg/mL (≈ 201 µM) | > 64 µg/mL | > 64 µg/mL |  | > 64 µg/mL | > 64 µg/mL | > 64 µg/mL | > 64 µg/mL | > 64 µg/mL | > 64 µg/mL | > 64 µg/mL | > 64 µg/mL | > 64 µg/mL | > 64 µg/mL | >64 | > 64 µg/mL | > 64 µg/mL | > 64 µg/mL | > 64 µg/mL | MIC, E. COLI [20]: > 64 µg/mL; MIC, K. PNEUMONIAE [12]: > 64 µg/mL; MIC, M. MORGANII [13]: > 64 µg/mL; MIC, P. MIRABILIS [14]: > 64 µg/mL; MIC, P. RETTGERI [15]: > 64 µg/mL; MIC, P. VULGARIS [21]: > 64 µg/mL; MIC, S. LIQUEFACIENS [17]: > 64 µg/mL; MIC, S. MALTOPHILIA [18]: > 64 µg/mL; MIC, S. MARCESCENS [19]: > 64 µg/mL

Reference: patent publication US8835476B2, “Synthesis of novel antimicrobials” (priority 2005, dated 2014)
